{"source": "patent US7767819B2", "about": "“Thiazolylimidazole derivatives and their use as inhibitors of microsomal triglyceride transfer protein” (Merck Patent GmbH, priority 2004, dated 2010)", "key": {"[1]": {"tested_on": "apo B secretion in HepG2 cells", "experiment": "Secretion of apo B in the HepG2 human cell line (sandwich ELISA)", "assay_type": "cell-based", "conditions": "24 hours incubation, culture supernatant, ELISA for human apo B, read-out: IC50 (concentration that produces a 50% inhibition of apo B secretion in the HepG2 cells)", "protocol": "Analysis of the Secretion of Apo B in the HepG2 Human Cell Line:\nThe activity of a compound according to the invention can be evaluated by measuring the inhibition of apo B secretion in HepG2 cells.\nThe HepG2 cells (ECACC-No. 85011430) are used as model in the study of the in vitro hepatic secretion of lipoproteins (Dixon J. and Ginsberg H., J. Lipid. Res., 1993, 34, 167-179).\nThe HepG2 cells are cultured in Dulbecco's modified Eagle's medium comprising 10% foetal calf serum (DMEM and FBS-Gibco) in 96-well plates under an atmosphere of 5% carbon dioxide for 24 hours (about 70% confluence).\nThe test compounds are dissolved at a concentration of 2 or 10 mM in dimethyl sulfoxide (DMSO). Serial dilutions (1:3.16) are made in DMSO and are:added (1:200—Robot Multimek Beckman) to the growth medium (200 μl) and then finally incubated for 24 hours in the various wells containing the HepG2 cells.\nThe 24-hour culture supernatant diluted to 1:5 (phosphate-buffered saline: PBS comprising 1% bovine serum albumin) is tested according to a sandwich-ELISA method specific for human apo B.\nThe results are expressed in terms of IC50, i.e. the concentration that produces a 50% inhibition of apo B secretion in the HepG2 cells."}, "[2]": {"target": "T1, microsomal triglyceride transfer protein (MTP) (Mesocricetus auratus, UniProt P55158)", "T1 construct": "The supernatant comprising the soluble MTP is dialysed against Tris/HCl 150 mM; from tissue; host or cells: golden hamster liver microsomes, deoxycholate-solubilised supernatant", "T1 sequence (P55158 19-895)": "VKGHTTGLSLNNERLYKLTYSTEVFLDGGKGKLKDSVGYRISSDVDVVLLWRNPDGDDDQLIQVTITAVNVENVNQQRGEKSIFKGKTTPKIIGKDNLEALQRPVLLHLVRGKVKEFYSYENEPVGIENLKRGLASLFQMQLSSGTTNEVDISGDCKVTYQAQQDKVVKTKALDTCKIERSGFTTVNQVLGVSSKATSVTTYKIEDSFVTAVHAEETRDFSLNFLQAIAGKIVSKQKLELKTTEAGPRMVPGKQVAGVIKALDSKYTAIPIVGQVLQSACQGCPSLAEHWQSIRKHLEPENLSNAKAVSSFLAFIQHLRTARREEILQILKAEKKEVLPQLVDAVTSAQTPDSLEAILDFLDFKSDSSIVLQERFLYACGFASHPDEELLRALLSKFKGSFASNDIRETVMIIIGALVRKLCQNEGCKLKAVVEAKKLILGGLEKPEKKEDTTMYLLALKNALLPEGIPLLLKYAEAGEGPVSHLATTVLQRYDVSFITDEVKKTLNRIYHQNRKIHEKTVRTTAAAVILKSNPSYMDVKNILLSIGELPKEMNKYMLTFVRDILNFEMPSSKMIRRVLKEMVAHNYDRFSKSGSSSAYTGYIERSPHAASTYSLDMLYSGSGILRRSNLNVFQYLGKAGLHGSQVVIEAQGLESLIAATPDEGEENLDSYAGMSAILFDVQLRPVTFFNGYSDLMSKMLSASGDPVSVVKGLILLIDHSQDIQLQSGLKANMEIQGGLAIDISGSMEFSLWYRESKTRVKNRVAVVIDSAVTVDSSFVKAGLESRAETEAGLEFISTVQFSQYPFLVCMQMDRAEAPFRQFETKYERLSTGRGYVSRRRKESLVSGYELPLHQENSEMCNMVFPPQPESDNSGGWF", "experiment": "Inhibition of MTP activity (transfer of [3H]-triolein from donor liposomes to biotinylated LDL, SPA)", "assay_type": "biochemical", "conditions": "MTP from golden hamster liver microsomes; incubation 18-24 hours at 37° C.; read-out: IC50 (concentration that allows a 50% inhibition of MTP)", "protocol": "Analysis of the Inhibition of MTP Activity\nThe inhibition of the activity of microsomal triglyceride transfer protein (MTP) was tested by using the following operating protocol.\nThe inhibition of MTP activity with a compound can be quantified by observing the inhibition of the transfer of a labelled triglyceride, from a donor particle to an acceptor particle, in the presence of MTP. The procedure for the preparation of MTP is based on the method by Wetterau and Zilversmit (Biochem. Biophys. Acta (1986) 875, 610). A few grams of golden hamster liver are taken and then rinsed several times in a 250 mM sucrose solution at 0° C. All the following steps proceed at +4° C. A homogenate at a concentration of 50% in 250 mM sucrose is prepared using a Teflon mill and then centrifuged for 10 minutes at 10 000×g at +4° C. The supernatant is then centrifuged at 105 000×g for 75 minutes at +4° C. The supernatant is discarded and the microsomal pellet is taken up in 3 ml (per g of starting liver) of Tris/HCl 150 mM pH 8.0. 1 ml aliquot fractions are stored at −80° C. until the time of use.\nAfter thawing a fraction of microsomes (1 ml), 12 ml of refrigerated Tris/HCl 50 mM, KCl 50 mM, MgCl2 5 mM pH 7.4 buffers and 1.2 ml of deoxycholate (0.54% in water) are added. After incubation for 30 minutes at +4° C. with gentle agitation, the suspension is centrifuged at 105 000×g for 75 minutes. The supernatant comprising the soluble MTP is dialysed against Tris/HCl 150 mM, NaCl 40 mM, EDTA 1 mM, 0.02% sodium azide pH 7.4 buffer (5 times one litre over 2-3 days). The MTP is stored at +4° C., is stable for at least 30 days and is used in unmodified form in the test.\nThe donor particles (liposomes) are prepared from 208 μl of L-phosphatidylcholine at a concentration of 10 mg/ml in chloroform, and 480 μl of [3H]-triolein at a concentration of 0.5 mCi/ml in toluene. After stirring, the solution is evaporated under nitrogen, taken up in 6 ml of Tris/HCl 50 mM, KCl 50 mM, MgCl2 5 mM pH 7.4 buffer and incubated in an ultrasound bath for 30 minutes at room temperature. The liposomes are stored at +4° C. and sonicated again for 10 minutes before each use.\nThe acceptor particles are biotinylated low density lipoproteins (LDL-biot). These particles are supplied by the company Amersham.\nThe reaction mixture is prepared in untreated ½ well white plates (Corning Costar) by addition, in the following order, of: 5 μl of HEPES 50 mM, NaCl-150 mM, BSA 0.1% (w/v), 0.05% sodium azide (w/v), pH 7.4 buffer; 5 μl of liposomes; 5 μl of LDL-biot; 5 μl of test products in DMSO; 5 μl of MTP. After incubation for 18-24 hours at 37° C., the reaction is stopped by adding 100 μl of Amersham SPA (scintillation proximity assay) beads coupled to streptavidin, and the radioactivity is counted using a Top Count (Packard) machine at least one hour later. The inhibition of the transfer of the triglycerides with a compound is reflected by a reduction in the transferred radioactivity.\nThe results are expressed in terms of the IC50, i.e. the concentration that allows a 50% inhibition of MTP."}}, "data": [{"smiles": "CCn1c(-c2csc(C3CCCN(C(=O)c4ccccc4-c4ccc(C(F)(F)F)cc4)C3)n2)nc(-c2ccccc2)c1C", "note": "(stereo not shown) [Example 7, {3-[4-(1-ethyl-5-methyl-4-phenyl-1H-imidazol-2-yl)thiazol-2-yl]piperid-1-yl}(4′-trifluoromethylbiphenyl-2-yl)methanone]", "values": [{"measurement": "IC50", "setting": "[1]", "result": 2090, "unit": "nM"}]}, {"smiles": "CCn1c(-c2csc(C3CCN(C(=O)c4ccccc4-c4ccc(C(F)(F)F)cc4)CC3)n2)nc(-c2cccnc2)c1C", "note": "[Example 4, {4-[4-(1-ethyl-5-methyl-4-(pyrid-3-yl)-1H-imidazol-2-yl)thiazol-2-yl]-piperid-1-yl}(4′-trifluoromethylbiphenyl-2-yl)methanone]", "values": [{"measurement": "IC50", "setting": "[2]", "result": 816, "unit": "nM"}, {"measurement": "IC50", "setting": "[1]", "result": 1570, "unit": "nM"}]}, {"smiles": "CCn1c(-c2csc(C3CCN(C(=O)c4ccccc4-c4ccc(C(F)(F)F)cc4)CC3)n2)nc(-c2ccccc2)c1C", "note": "[Example 3, {4-[4-(1-ethyl-5-methyl-4-phenyl-1H-imidazol-2-yl)thiazol-2-yl]piperid-1-yl}(4′-trifluoromethylbiphenyl-2-yl)methanone]", "values": [{"measurement": "IC50", "setting": "[2]", "result": 270, "unit": "nM"}, {"measurement": "IC50", "setting": "[1]", "result": 390, "unit": "nM"}]}, {"smiles": "CCn1c(-c2csc(C3CCN(C(=O)c4cccc(C)c4-c4ccc(OC(F)(F)F)cc4)CC3)n2)nc(-c2ccccc2)c1C", "note": "[Example 1, {4-[4-(1-Ethyl-5-methyl-4-phenyl-1H-imidazol-2-yl)thiazol-2-yl]piperid-1-yl}(6-methyl-4′-trifluoromethoxybiphenyl-2-yl)methanone]", "values": [{"measurement": "IC50", "setting": "[2]", "result": 320, "unit": "nM"}, {"measurement": "IC50", "setting": "[1]", "result": 369, "unit": "nM"}]}, {"smiles": "CCn1c(-c2csc(C3CCN(C(=O)c4cccc(C)c4-c4ccc(OC(F)(F)F)cc4)CC3)n2)nc(-c2ccccn2)c1C", "note": "[Example 6, {4-[4-(1-ethyl-5-methyl-4-(pyrid-2-yl)-1H-imidazol-2-yl)thiazol-2-yl]-piperid-1-yl}(6-methyl-4′-trifluoromethoxybiphenyl-2-yl)methanone]", "values": [{"measurement": "IC50", "setting": "[2]", "result": 1830, "unit": "nM"}, {"measurement": "IC50", "setting": "[1]", "result": 2300, "unit": "nM"}]}, {"smiles": "Cc1c(-c2ccccc2)nc(-c2csc(C3CCN(C(=O)c4ccccc4-c4ccc(C(F)(F)F)cc4)CC3)n2)n1C", "note": "[Example 2, {4-[4-(1,5-dimethyl-4-phenyl-1H-imidazol-2-yl)thiazol-2-yl]piperid-1-yl}(4′-trifluoromethylbiphenyl-2-yl)methanone]", "values": [{"measurement": "IC50", "setting": "[2]", "result": 300, "unit": "nM"}, {"measurement": "IC50", "setting": "[1]", "result": 616, "unit": "nM"}]}, {"smiles": "CCn1c(-c2csc(C3CCN(C(=O)c4ccccc4-c4ccc(C(F)(F)F)cc4)CC3)n2)nc(-c2ccccn2)c1C", "note": "[Example 5, {4-[4-(1-ethyl-5-methyl-4-(pyrid-2-yl)-1H-imidazol-2-yl)thiazol-2-yl]-piperid-1-yl}(4′-trifluoromethylbiphenyl-2-yl)methanone]", "values": [{"measurement": "IC50", "setting": "[2]", "result": 2540, "unit": "nM"}, {"measurement": "IC50", "setting": "[1]", "result": 2620, "unit": "nM"}]}]}
